Experimental data published in paper PMC5515969, “Effects of 31 FDA approved small-molecule kinase inhibitors on isolated rat liver mitochondria” (Archives of Toxicology, 2016).
Where a name gives a salt, the structure may show the parent alone. Read-outs that look alike come from different tables or passages of the source.

Tests used:
[1] = cited from earlier work
[2] = cited from earlier work; remark: listed apart in the source
[3] = test system: isolated rat liver mitochondria
[4] = test system: isolated rat liver mitochondria; test: Mitochondrial ROS production (CM-H2DCFDA)
RCC I = RCC I activity in submitochondrial particles; format: biochemical, rat; set-up: key to RCC I at 10XCmax / RCC I at 100XCmax / RCC I at 50XCmax / RCC I at 30XCmax / RCC I at 20XCmax: activity relative to DMSO-treated controls (control set as 1 = 100%); conditions: 10XCmax; relative to DMSO treated samples
Description: (§1) KIs were incubated with submitochondrial particles (1 mg/ml) for 15 min and then RCC I–V activities measured. […] The activities of DMSO-treated samples (controls) were set as 1. […] The difference between the activity from rotenone-containing buffer and rotenone-absent buffer was considered as RCC I activity. […] For measuring RCC I/V and II activity, the changes in absorbance at 340 and 600 nm, respectively, were determined every 1 min for 6 min. For measuring RCC III and RCC IV, the changes in absorbance at 550 nm were measured every 10 s for 2 min.

RCC IV = RCC IV activity in submitochondrial particles; format: biochemical, rat; set-up: key to RCC IV at 50XCmax / RCC IV at 100XCmax: activity relative to DMSO-treated controls (control set as 1 = 100%); conditions: 50XCmax; relative to DMSO treated samples; in %
Description: as §1

[5] = test system: isolated rat liver mitochondria; test: Mitochondrial inner membrane potential (MMP), Rhodamine 123; format: biochemical; conditions: difference in signal between KI and DMSO treated samples at the end of experiments
Description: Fig. 3 KI effects on mitochondrial inner membrane potential (MMP). […] In a, c, data are means and standard derivations from three separate experiments. *p < 0.05 as compared to DMSO-treated samples at the end of experiments. In b, data are means of two independent experiments

RCC V = RCC V activity in submitochondrial particles; format: biochemical, rat; conditions: relative to DMSO treated samples; on RCC V at 5XCmax: key: 0 indicates that the drug had no effects (negative)
Description: as §1

RCC III = RCC III activity in submitochondrial particles; format: biochemical, rat; set-up: key to RCC III at 100XCmax: activity relative to DMSO-treated controls (control set as 1 = 100%); conditions: 100XCmax; relative to DMSO treated samples
Description: as §1

RCC II = molecular target: T1, RCC II (Rattus norvegicus, UniProt P21913+Q641Z9+Q6PCT8+Q920L2); test: RCC II activity in submitochondrial particles; format: biochemical; set-up: key: activity relative to DMSO-treated controls (control set as 1 = 100%); conditions: relative to DMSO treated samples
T1 construct: Submitochondrial particles were prepared by subjecting the intact mitochondria to three successive freeze–thaw cycles; from tissue; host or cells: rat liver mitochondria, used as submitochondrial particles
T1 sequence (Q920L2 35-656): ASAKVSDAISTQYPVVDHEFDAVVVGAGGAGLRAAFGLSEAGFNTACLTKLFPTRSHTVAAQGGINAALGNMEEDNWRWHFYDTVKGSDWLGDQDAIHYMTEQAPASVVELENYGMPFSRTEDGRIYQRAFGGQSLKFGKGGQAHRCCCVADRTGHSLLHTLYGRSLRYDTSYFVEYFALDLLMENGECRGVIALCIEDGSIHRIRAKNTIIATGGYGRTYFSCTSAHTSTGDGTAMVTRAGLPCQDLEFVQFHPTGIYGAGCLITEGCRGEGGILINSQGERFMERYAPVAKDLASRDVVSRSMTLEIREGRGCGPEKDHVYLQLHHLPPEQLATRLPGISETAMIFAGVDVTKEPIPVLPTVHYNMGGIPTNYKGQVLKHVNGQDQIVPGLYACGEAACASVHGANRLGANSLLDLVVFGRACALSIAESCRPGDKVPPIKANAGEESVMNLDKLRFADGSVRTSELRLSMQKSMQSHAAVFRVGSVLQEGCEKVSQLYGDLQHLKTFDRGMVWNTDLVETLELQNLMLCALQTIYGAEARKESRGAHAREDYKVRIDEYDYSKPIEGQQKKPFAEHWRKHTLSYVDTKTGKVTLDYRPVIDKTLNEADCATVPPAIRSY
T1 sequence (P21913 31-282): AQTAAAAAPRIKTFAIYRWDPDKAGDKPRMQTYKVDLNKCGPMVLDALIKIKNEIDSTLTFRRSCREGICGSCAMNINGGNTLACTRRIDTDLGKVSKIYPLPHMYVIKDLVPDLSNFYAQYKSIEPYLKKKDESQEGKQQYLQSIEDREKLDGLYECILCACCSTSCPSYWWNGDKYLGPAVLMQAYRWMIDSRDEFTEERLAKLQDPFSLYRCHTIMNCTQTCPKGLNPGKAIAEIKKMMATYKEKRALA
T1 sequence (Q641Z9 1-169): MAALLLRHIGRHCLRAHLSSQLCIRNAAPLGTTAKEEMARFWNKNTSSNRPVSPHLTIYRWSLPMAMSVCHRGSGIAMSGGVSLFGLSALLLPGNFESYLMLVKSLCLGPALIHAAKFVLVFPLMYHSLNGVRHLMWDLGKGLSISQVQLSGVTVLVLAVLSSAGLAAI
T1 sequence (Q6PCT8 57-159): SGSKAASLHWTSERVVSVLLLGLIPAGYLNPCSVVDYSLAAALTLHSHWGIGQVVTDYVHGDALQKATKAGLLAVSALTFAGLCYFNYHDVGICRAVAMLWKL
Description: as §1

[6] = test system: isolated rat liver mitochondria; test: Mitochondrial swelling (absorbance at 535 nm); format: biochemical; conditions: difference in signal between KI and DMSO treated samples at the end of experiments; on Swelling 5XCmax: key: 0 indicates that the drug had no effects (negative)
[7] = test system: isolated rat liver mitochondria; test: Mitochondrial oxygen consumption (glutamate/malate or succinate driven, state 4 and state 3); format: biochemical; conditions: DMSO treated samples set as 1; on State 3 respiration driven by succinate at 10XCmax: key: 0 indicates that the drug had no effects (negative); on State 3 respiration driven by succinate at 1XCmax: key: 0 indicates that the drug had no effects (negative)
Description: Rats were anesthetized by an intraperitoneal injection of Nembutal and the liver perfused with PBS to remove the blood. The liver was then cut into small pieces and homogenized using a Dounce type homogenizer in the ice-cold isolation buffer (IB) containing 200 mM sucrose, 10 mM Tris-MOPS, 1 mM EGTA (pH 7.4). The sample was then centrifuged at 600g for 10 min. The supernatant was further centrifuged at 7500g for 10 min, and the pellets was washed once with the IB and centrifuged again at 7500g for 10 min to collect mitochondria. […] Before drug treatment, the protein concentration was adjusted to 1 mg/ml using appropriate buffer. […] Briefly, mitochondrial and cytosolic fractions from four different preparations using four rats were diluted using the Laemmli protein loading buffer and subject to SDS-PAGE with 4–20% gradient gels. The proteins were blotted to PVDF membranes and detected using antibodies against GAPDH, ATP5A, UQCRC2, SDHB, and NDUFB8.
The aliquoted stock solutions were kept for less than one month and each tube was used only once. The KIs were added to the mitochondria at 1:1000 dilutions. […] The Cmax data were from clinical trials which used FDA recommend dosages, route of administration, and duration. […] The final concentration of DMSO for drug treatment was always 0.1%, and control treatments were 0.1% DMSO.
Briefly, mitochondria were incubated with the KIs for 5 min, and then split evenly and loaded to the sample tubes of two Oxytherm systems (Hansatech Instruments Ltd), with one system used for measuring glutamate/malate driven respiration and the other succinate-driven respiration, both of which were defined as state 4 respiration. After 3 min, ADP was added to measure the maximal oxygen consumption rate, which was defined as state 3 respiration. […] The oxygen consumption rate of DMSO-treated samples (controls) was set as 1.

[8] = human therapeutic Cmax at FDA recommended dosages, ref product labeling and drug approval packages at the official FDA website
[9] = read-out: Cmax at µM, therapeutic maximal blood concentration, ref product labeling
[10] = therapeutic maximal blood concentration, ref product labeling

## CN(C)C/C=C/C(=O)Nc1cc2c(Nc3ccc(F)c(Cl)c3)ncnc2cc1O[C@H]1CCOC1 [Afatinib]
[1]; W&P warnings and precautions, BBW black box warnings, ref FDA product labeling
  labeling for DILI: W&P: ALT↑/monitoring
[1]; ref FDA product labeling
  DILI potential (based on labeling): 1
[2]; [8]
  Cmax: 0.04 µM

## Cc1nc(Nc2ncc(C(=O)Nc3c(C)cccc3Cl)s2)cc(N2CCN(CCO)CC2)n1 [Dasatinib]
[1]; ref FDA product labeling
  DILI potential (based on labeling): 0
[2]; [8]
  Cmax: 0.18 µM

## Cc1ccc(NC(=O)c2ccc(CN3CCN(C)CC3)cc2)cc1Nc1nccc(-c2cccnc2)n1 [Imatinib]
[1]; in vivo
  DILI potential (based on labeling): 1
  labeling for DILI: W&P: fatal DILI

## CC(=O)c1c(C)c2cnc(Nc3ccc(N4CCNCC4)cn3)nc2n(C2CCCC2)c1=O [Palbociclib]
[1]; ref FDA product labeling
  DILI potential (based on labeling): 0
[2]; [8]
  Cmax: 0.24 µM

## C[C@@H]1CCN(C(=O)CC#N)C[C@@H]1N(C)c1ncnc2[nH]ccc12 [Tofacitinib]
[3]; rat, 30 min, pH 7.4
  lowest concentration causing cytochrome c release: 100 fold Cmax
[2]; [8]
  Cmax: 0.09 µM

## [Ca+2].[Cl-].[Cl-] [calcium chloride]
[4]; positive control, 100 µM CaCl2, DMSO-treated = 1
  increase in ROS production: threefold

## Cc1ccc(NC(=O)c2ccc(CN3CCN(C)CC3)cc2)cc1Nc1nccc(-c2cccnc2)n1 [imatinib mesylate]
[1]; in vivo
  Labeling for DILI: W&P: fatal DILI
[2]; [9]
  Cmax: 2 µM
[2]; [10]
  Cmax: 986 ng/mL

## CNS(=O)(=O)C[C@H]1CC[C@H](N(C)c2ncnc3[nH]ccc23)CC1 [oclacitinib]
[3]
  cytochrome c release from intact mitochondria: significant cytochrome c release

## C[C@@H]1CCN(C(=O)CC#N)C[C@@H]1N(C)c1ncnc2[nH]ccc12 [tofacitinib citrate]
RCC I
  RCC I at 10XCmax: 0
[3]; 1XCmax, positive control alamethicin treated samples
  Cytochrome c release 1XCmax: 0
[3]; 2.5XCmax, positive control alamethicin treated samples
  Cytochrome c release 2.5XCmax: 0
[3]; 5XCmax, positive control alamethicin treated samples
  Cytochrome c release 5XCmax: 0
[3]; 10XCmax, positive control alamethicin treated samples
  Cytochrome c release 10XCmax: 0
[3]; 20XCmax, positive control alamethicin treated samples
  Cytochrome c release 20XCmax: 0
[3]; 30XCmax, positive control alamethicin treated samples
  Cytochrome c release 30XCmax: 0
[3]; 50XCmax, positive control alamethicin treated samples
  Cytochrome c release 50XCmax: 0
[3]; 100XCmax, positive control alamethicin treated samples
  Cytochrome c release 100XCmax: 7.22±1.11 percentage of the positive control group
RCC IV
  RCC IV at 50XCmax: 0
[5]; 1XCmax
  MMP measured by Rhodamine 123 at 1XCmax: 0
[5]; 2.5XCmax
  MMP measured by Rhodamine 123 at 2.5XCmax: 0
[5]; 5XCmax
  MMP measured by Rhodamine 123 at 5XCmax: 0
[5]; 10XCmax
  MMP measured by Rhodamine 123 at 10XCmax: 0
[5]; 20XCmax
  MMP measured by Rhodamine 123 at 20XCmax: 0
[5]; 30XCmax
  MMP measured by Rhodamine 123 at 30XCmax: 0
[5]; 50XCmax
  MMP measured by Rhodamine 123 at 50XCmax: 0
[5]; 100XCmax
  MMP measured by Rhodamine 123 at 100XCmax: 0
RCC V; 5XCmax
  RCC V at 5XCmax: 0
RCC V; 50XCmax
  RCC V at 50XCmax: 0
RCC III
  RCC III at 100XCmax: 0
[4]; 1XCmax, DMSO treated samples set as 1
  ROS measured by CM-H2DCFDA at 1XCmax: 0
[4]; 2.5XCmax, DMSO treated samples set as 1
  ROS measured by CM-H2DCFDA at 2.5XCmax: 0
[4]; 5XCmax, DMSO treated samples set as 1
  ROS measured by CM-H2DCFDA at 5XCmax: 0
[4]; 10XCmax, DMSO treated samples set as 1
  ROS measured by CM-H2DCFDA at 10XCmax: 0
[4]; 20XCmax, DMSO treated samples set as 1
  ROS measured by CM-H2DCFDA at 20XCmax: 0
[4]; 30XCmax, DMSO treated samples set as 1
  ROS measured by CM-H2DCFDA at 30XCmax: 0
[4]; 50XCmax, DMSO treated samples set as 1
  ROS measured by CM-H2DCFDA at 50XCmax: 0
[4]; 100XCmax, DMSO treated samples set as 1
  ROS measured by CM-H2DCFDA at 100XCmax: 0
RCC II; 1.0XCmax
  RCC II at 1.0XCmax: 0
RCC II; 2.5XCmax
  RCC II at 2.5XCmax: 0
RCC II; 5XCmax
  RCC II at 5XCmax: 0
RCC II; 10XCmax
  RCC II at 10XCmax: 0
RCC II; 20XCmax
  RCC II at 20XCmax: 0
RCC II; 30XCmax
  RCC II at 30XCmax: 0
RCC II; 50XCmax
  RCC II at 50XCmax: 0
RCC II; 100XCmax
  RCC II at 100XCmax: 0
[6]; 1XCmax
  Swelling 1XCmax: 0
[6]; 2.5XCmax
  Swelling 2.5XCmax: 0
[6]; 5XCmax
  Swelling 5XCmax: 0
[6]; 10XCmax
  Swelling 10XCmax: 0
[6]; 20XCmax
  Swelling 20XCmax: 0
[6]; 30XCmax
  Swelling 30XCmax: 0
[6]; 50XCmax
  Swelling 50XCmax: 0
[6]; 100XCmax
  Swelling 100XCmax: 0
[2]; [9]
  Cmax: 0.089 µM
[2]; [10]
  Cmax: 45.1 ng/mL
[7]; 1XCmax
  State 3 respiration driven by succinate at 1XCmax: 0
  State 4 respiration driven by succinate at 1XCmax: 0
[7]; 2.5XCmax
  State 3 respiration driven by succinate at 2.5XCmax: 0
  State 4 respiration driven by succinate at 2.5XCmax: 0
[7]; 5XCmax
  State 3 respiration driven by succinate at 5XCmax: 0
  State 4 respiration driven by succinate at 5XCmax: 0
[7]; 10XCmax
  State 3 respiration driven by succinate at 10XCmax: 0
  State 4 respiration driven by succinate at 10XCmax: 0
[7]; 20XCmax
  State 3 respiration driven by succinate at 20XCmax: 0
  State 4 respiration driven by succinate at 20XCmax: 0
[7]; 30XCmax
  State 3 respiration driven by succinate at 30XCmax: 0
  State 4 respiration driven by succinate at 30XCmax: 0
[7]; 50XCmax
  State 3 respiration driven by succinate at 50XCmax: 0
  State 4 respiration driven by succinate at 50XCmax: 0
[7]; 100XCmax
  State 3 respiration driven by succinate at 100XCmax: 0
  State 4 respiration driven by succinate at 100XCmax: 0
